This note sets out measurements from ChEMBL document CHEMBL1157433, “Design and synthesis of 4-HPR derivatives for rhabdoid tumors” (Bioorg Med Chem Lett, 2008).

SMILES strings stand for the structures. Active and inactive are the calls of the source. The calls are words filed in the database; no cut-off is given here.

System in the first test: not listed separately
The experiment in a line: (§1) Cytotoxicity against human MON cells after 3 days by MTS assay. Format: functional, cell-based. As to conditions: Homo sapiens, MON, 72 h; read-out: IC50.
One may read the IC50 as the concentration needed to halve the response being measured. As to `CC1=C(/C=C/C(C)=C/C=C/C(C)=C/C(=O)Nc2ccc(F)cc2)C(C)(C)CCC1`, the IC50 is 150 µM.
The same measure, in the same setting: to `CC1=C(/C=C/C(C)=C/C=C/C(C)=C/C(=O)O)C(C)(C)CCC1` [TRETINOIN] belongs 100 µM; to `CC1=C(/C=C/C(C)=C/C=C/C(C)=C/C(=O)Nc2ccc(O)c(F)c2)C(C)(C)CCC1`, 8 µM; to `CC1=C(/C=C/C(C)=C/C=C/C(C)=C/C(=O)Nc2ccc(CCO)cc2)C(C)(C)CCC1`, > 50 µM.
Still for that read-out and setting: to `CC1=C(/C=C/C(C)=C/C=C/C(C)=C/C(=O)Nc2ccc(Br)cc2)C(C)(C)CCC1` belongs 150 µM; to `CC1=C(/C=C/C(C)=C/C=C/C(C)=C/C(=O)Nc2ccc(O)cc2O)C(C)(C)CCC1`, 8 µM.
Still for that read-out and setting: to `CC1=C(/C=C/C(C)=C/C=C/C(C)=C/C(=O)Nc2ccc(O)c(Cl)c2)C(C)(C)CCC1` belongs 12.5 µM; to `CC1=C(/C=C/C(C)=C/C=C/C(C)=C/C(=O)Nc2ccc(Cl)cc2)C(C)(C)CCC1`, > 200 µM.
For `CC1=C(/C=C/C(C)=C/C=C/C(C)=C/C(=O)Nc2ccc(O)c(I)c2)C(C)(C)CCC1`, the 50% inhibitory concentration (IC50) stood at 3 µM.
In the case of `CC1=C(/C=C/C(C)=C/C=C/C(C)=C/C(=O)Nc2ccc([N+](=O)[O-])cc2)C(C)(C)CCC1`, the half-inhibitory concentration (IC50) is > 200 µM.
On the same count and under the same terms, the value for `CC1=C(/C=C/C(C)=C/C=C/C(C)=C/C(=O)Nc2ccc(CO)cc2)C(C)(C)CCC1` was 25 µM.

The test is the same for the next values; noted with them: mon.
`COc1ccc(NC(=O)/C=C(C)/C=C/C=C(C)/C=C/C2=C(C)CCCC2(C)C)cc1`: the 50% inhibitory concentration (IC50) result is listed as “Not Active”.

The test is the same for the next values; noted with them: mon; read-out: IC50.
On to `CC1=C(/C=C/C(C)=C/C=C/C(C)=C/C(=O)Nc2ccc(O)cc2)C(C)(C)CCC1` (stereo in doubt; 5g) [FENRETINIDE], for which the IC50 was found to be 19 µM.
On the same count and under the same terms, to `CC1=C(/C=C/C(C)=C/C=C/C(C)=C/C(=O)Nc2ccc(O)cc2)C(C)(C)CCC1` (stereo in doubt) [FENRETINIDE] belongs 9 µM.

A further test relates to MON. The test is described as §1. Format: functional, cell-based.
Settings: not given
Turning to `CC1=C(/C=C/C(C)=C/C=C/C(C)=C/C(=O)Nc2ccc(I)cc2)C(C)(C)CCC1`, the outcome was inactive.
Still for that read-out and setting: to `CC1=C(/C=C/C(C)=C/C=C/C(C)=C/C(=O)Nc2ccc(O)c([N+](=O)[O-])c2)C(C)(C)CCC1` belongs “inactive”.
